Reference: ChEMBL document CHEMBL5724581, “Toxicity screen in purified B cell assay results for EUbOPEN Chemogenomics Library” (2024)
Where “and” joins values, the source holds several entries; their conditions need not be identical. Equal values may be shown once. Bridge positions count the residues as written; N and C are the ends. Square brackets hold non-standard residues; d marks the D form. Peptide text beside a SMILES is read from it. * marks the point of attachment. dPhe(4-NHCONH2) = NC(=O)Nc1ccc(C[C@@H](N)C(=O)O)cc1; Dihydroorotyl(S) = O=C1C[C@@H](C(=O)*)NC(=O)N1; dPhe(4-Cl) = N[C@H](Cc1ccc(Cl)cc1)C(=O)O; Phe(4-NH2) = Nc1ccc(C[C@H](N)C(=O)O)cc1; d2Nal = N[C@H](Cc1ccc2ccccc2c1)C(=O)O; Lys(iPr) = CC(C)NCCCC[C@H](N)C(=O)O; d3Pal = N[C@H](Cc1cccnc1)C(=O)O; Orn = NCCC[C@H](N)C(=O)O; Mpa = O=C(O)CCS

Tested on: B cell
Test: Cytotoxicity screening of chemical probes in isolated B cell assay. Data is normalized to DMSO control, the cell viability average of replicates are reported. Reduction of ATP level more than 20% indicate compromised cell health status.
Conditions: human, 1 µM

| Compound | Cell Viability |
| --- | --- |
| CSc1ccc(C(=O)N[C@@H]2CCCC[C@@H]2NC(=O)CNC(=O)c2cc(C(F)(F)F)ccc2NC(=O)NC(C)C)cc1 | 102.032% |
| Cc1ccc(Cn2nc(C(=O)N[C@@H]3C(C)(C)[C@@H]4CC[C@@]3(C)C4)cc2-c2ccc(Cl)c(C)c2)cc1 | 98.0011% |
| Cc1c(C(=O)NN2CCCCC2)nn(-c2ccc(Cl)cc2Cl)c1-c1ccc(Cl)cc1 [RIMONABANT] | 98.0011% |
| Cc1cc(Cn2cnc3c2C[C@@H](C(=O)O)N(C(=O)C(c2ccccc2)c2ccccc2)C3)ccc1N(C)C | 98.0011% |
| COc1cccc2c1c(NS(=O)(=O)c1ccc(Cl)s1)nn2Cc1cccc(CNC(=O)C(C)(C)O)c1 | 103.681% |
| NC(=O)c1ccc(CNC(=O)NC[C@H]2CN(Cc3ccc(Cl)c(Cl)c3)CCO2)cc1 | 98.0011% |
| N#Cc1ccc(NC(=O)Nc2ccccc2Br)c2nn[nH]c12 | 104.304% |
| CCOc1ccc(C[C@H]2NC(=O)CCSSC[C@@H](C(=O)N3CCC[C@H]3C(=O)N[C@@H](CCCN)C(=O)NCC(N)=O)NC(=O)[C@H](CC(N)=O)NC(=O)[C@H]([C@@H](C)O)NC(=O)[C@H]([C@@H](C)CC)NC2=O)cc1 [ATOSIBAN] ([Mpa][dY](Et)ITNCP[Orn]G-NH2; disulfide 1-6) | 98.0011% |
| C[C@]12N[C@H](Cc3ccccc31)c1ccccc12 [DIZOCILPINE] | 98.0011% |
| O=C(O)c1n[nH]c2c1C[C@H]1C[C@@H]21 | 98.0011% |
| CCCCC(=O)N(Cc1ccc(-c2ccccc2-c2nnn[nH]2)cc1)[C@H](C(=O)O)C(C)C | 98.0011% |
| Cc1[nH]cnc1CN1CCc2c(c3ccccc3n2C)C1=O [ALOSETRON] | 98.0011% |
| Cl.Clc1ccc2nsnc2c1NC1=NCCN1 [TIZANIDINE HYDROCHLORIDE] | 98.0011% |
| C[C@H](CO)Nc1nc(SCc2cccc(Cl)c2F)nc2[nH]c(=O)sc12 | 95.8941% |
| CSc1cc2c(cc1C(F)(F)F)N(C(=O)Nc1cccnc1)CC2 | 98.0011% |
| CC#C[C@@H](CC(=O)O)c1ccc(OCc2cccc(-c3ccc(C(F)(F)F)cc3)c2)cc1 | 98.0011% |
| COc1ccncc1C(=O)NC(=O)Nc1ccc(-c2ccccc2)c(C(F)(F)F)c1 | 98.0011% |
| N#Cc1c(O)nc(SCc2cccc(F)c2F)nc1C1CC1 | 104.007% |
| CC(C)N(CCCCOCC(=O)NS(C)(=O)=O)c1cnc(-c2ccccc2)c(-c2ccccc2)n1 [SELEXIPAG] | 98.0011% |
| Cc1nc[nH]c1CCN.Cl | 98.0011% |
| O=C(O)Cc1ccccc1Nc1c(Cl)cccc1Cl [DICLOFENAC] | 98.0011% and 91.1433% |
| CC1(C)[C@H]2C[C@H](C/C=C\CCCC(=O)O)[C@@H](NC(=O)c3csc4ccc(O)cc34)[C@@H]1C2 | 98.0011% |
| Cc1c(F)cccc1NC(=O)Nc1ccc(Cl)c(S(=O)(=O)[C@H]2CCCNC2)c1O [DANIRIXIN] | 101.889% |
| CC(C)C[C@@H]1NC(=O)[C@@H](C(C)C)NC(=O)[C@@H]2CCCN2C(=O)[C@@H](CC(=O)O)NC(=O)[C@@H](Cc2c[nH]c3ccccc23)NC1=O [BQ-123] (cyclo(L[dW][dD]P[dV])) | 98.0011% |
| C[C@@H](OC[C@@]1(c2ccccc2)CC[C@]2(CCC(=O)N2)CN1)c1cc(C(F)(F)F)cc(C(F)(F)F)c1 [ROLAPITANT] | 98.0011% |
| COC(c1ccccc1)(c1ccccc1)[C@H](Oc1nc(C)cc(C)n1)C(=O)O [AMBRISENTAN] | 98.0011% |
| O=C(NCc1ccc(F)cc1)N1CCN2C(=O)OC(c3ccccc3)(c3ccccc3)C2C1 (stereo not drawn) | 98.0011% |

| Compound | Cell Viability |
| --- | --- |
| Cl.O=c1c2cccn2c2ccccc2n1CCCN1CCC(c2ccc(Cl)cc2)CC1 | 98.0011% and 103.839% |
| CC(=O)N[C@H](Cc1ccc2ccccc2c1)C(=O)N[C@H](Cc1ccc(Cl)cc1)C(=O)N[C@H](Cc1cccnc1)C(=O)N[C@@H](CO)C(=O)N[C@@H](Cc1ccc(NC(=O)[C@@H]2CC(=O)NC(=O)N2)cc1)C(=O)N[C@H](Cc1ccc(NC(N)=O)cc1)C(=O)N[C@@H](CC(C)C)C(=O)N[C@@H](CCCCNC(C)C)C(=O)N1CCC[C@H]1C(=O)N[C@H](C)C(N)=O [DEGARELIX] (Ac-[d2Nal][dPhe(4-Cl)][d3Pal]S[Phe(4-NH2)](Dihydroorotyl(S))[dPhe(4-NHCONH2)]L[Lys(iPr)]P[dA]-NH2) | 98.0011% |
| c1ccc(NCc2ccc(CNc3ccccn3)cc2)nc1 | 99.8082% |
| c1cc(OCCCN2CCCCC2)ccc1CN1CCCCC1 [JNJ-5207852] | 98.0011% |
| CC[C@H]1OC(=O)[C@H](C)[C@@H](O[C@H]2C[C@@](C)(OC)[C@@H](O)[C@H](C)O2)[C@H](C)[C@@H](O[C@@H]2O[C@H](C)C[C@H](N(C)C)[C@H]2O)[C@@]2(C)CC(C)=C(O2)[C@H](C)[C@@H](O)[C@]1(C)O | 98.0011% |
| Cc1nnc(C(=O)NC(C)(C)c2nc(C(=O)NCc3ccc(F)cc3)c(O)c(=O)n2C)o1 | 103.493% |
| CCCn1c(=O)c2[nH]c(C3CCCC3)nc2n(CCC)c1=O [1,3-DIPROPYL-8-CYCLOPENTYLXANTHINE [DPCPX]] | 98.0011% |
| C[C@@H]1CN(Cc2ccc(F)cc2)CCN1C(=O)COc1ccc(Cl)cc1NC(N)=O [BX 471 FREE BASE] | 98.0011% and 103.598% |
| COC[C@@H](c1ccc(C(F)(F)F)cc1)N1CCN(C2(C)CCN(C(=O)c3c(C)ncnc3C)CC2)C[C@@H]1C.O=C(O)/C=C\C(=O)O [VICRIVIROC MALEATE] | 101.876% |
| O=S(=O)(c1ccccc1)c1cnc2c(N3CCNCC3)cccc2c1 [INTEPIRDINE] | 98.0011% |
| CC(C)Cc1ccc([C@@H](C)C(=O)NS(C)(=O)=O)cc1 [REPARIXIN] | 98.0011% and 100.432% |
| CCNC1(C(N)=O)CCN(c2ncnc3c2nc(-c2ccccc2Cl)n3-c2ccc(Cl)cc2)CC1 [OTENABANT] | 98.0011% |
| NS(=O)(=O)c1c(Cl)ccc(NC(=O)Nc2cccc(Cl)c2Cl)c1O | 102.927% |
| C[C@@H](O[C@H]1OCCN(Cc2n[nH]c(=O)[nH]2)[C@H]1c1ccc(F)cc1)c1cc(C(F)(F)F)cc(C(F)(F)F)c1 [APREPITANT] | 98.0011% |
| COCCn1c(C)c(C)s/c1=N\C(=O)C1C(C)(C)C1(C)C | 98.0011% |
| Cc1ccc2c(c1CCC(=O)O)CC[C@@H](NS(=O)(=O)c1ccc(Cl)cc1)C2 [TERUTROBAN] | 98.0011% |
| COc1ccc(C(=O)N2CCN(C(=O)/C=C/c3ccc(Br)cc3)CC2)cc1 | 98.0011% |
| c1cc(CN2CCCNCCNCCCNCC2)ccc1CN1CCCNCCNCCCNCC1 [PLERIXAFOR] | 104.498% |
| CCc1nc2c(C)cc(C)nc2[nH]1 | 98.0011% |
| CCOc1nc2cccc(C(=O)O)c2n1Cc1ccc(-c2ccccc2-c2nnn[nH]2)cc1 | 98.0011% |
| Nc1nc2c(c(N3CCNCC3)n1)CCC1=C2[C@@H]2CCCC[C@@H]2O1 | 100.079% |
| O=C(NCC(=O)N1CC[C@H](N[C@H]2CC[C@@](O)(c3ccc(-c4ncccn4)cn3)CC2)C1)c1cccc(C(F)(F)F)c1 [PF-4136309] | 99.5458% |
| COc1cc(C(=O)N(CCCc2ccccc2)Cc2ccc(CC(=O)O)cc2)cc(OC)c1C | 98.0011% |
| Cc1cc(OCCCS(C)(=O)=O)cc(C)c1-c1cccc(COc2ccc3c(c2)OC[C@H]3CC(=O)O)c1 | 98.0011% |
| Cc1ccc(/C(=C\CN2CCCC2)c2ccccn2)cc1 [TRIPROLIDINE] | 98.0011% |
| CC(C)C[C@H](CO)Nc1nc(S[C@@H](C)c2ccccc2)nc2nc(N)sc12 [AZD-8797] | 97.9584% |
